Read-outs that look alike come from different tables or passages of the source. {(RXR)4XB} = cell-penetrating peptide (R arginine, X 6-aminohexanoic acid, B beta-alanine), conjugated via its C-terminal beta-alanine linked through a pip-PDA moiety; {TEG} = triethylene glycol end group (as defined in the publication); {Acetyl} = acetyl cap
Key:
[1] = system: E. coli SMS-3-5; assay: MIC of classical antibiotics with added PPMOs that target resistance genes; format: cell-based
Source text: FIGS. 15A-15B show the minimum inhibitory concentration (MIC) of classical antibiotics with added PPMOs that target resistance genes in E. coli SMS-3-5. (FIG. 15A) MIC of ampicillin with blaT-(RXR)4XB (PPMO#66). (FIG. 15B) MIC of chloramphemicol with cmlA-(RXR)4XB (PPMO#67). N=3.
Minimal Inhibitory Concentration Assays.
Modulating antibiotic resistance with PPMOs could be an alternative therapeutic strategy. As proof of concept, PPMOs were designed to target specific, non-essential antibiotic resistance genes. blaT is part of the TEM beta-lactamase family and is found in environmental strains of E. coli, like SMS-3-5.

[2] = system: multi-drug-resistant strain of Acinetobacter baumannii (AYE); assay: MIC of colistin, meropenem, tobramycin with added PPMO (microdilution), synergy by isoboles; settings: for MIC: Acinetobacter baumannii
Protocol: Minimal Inhibitory Concentration Assays. Minimal inhibitory concentration (MIC) assays were performed in Mueller Hinton II medium using the microdilution method as described by the Clinical and Laboratory Standards Institute (CLSI). Optical density (OD) of cultures was read in a microplate spectrophotometer at 595-600 nm. After 18-20 hours of aerobic growth (200-250 rpm) at 37° C., 100 μl cultures with an OD of <0.06 were scored as no growth.
Synergy Studies. MICs were performed with a PPMO and a classic antibiotic (as indicated) in a 96 well plate. The PPMO was diluted first horizontally down the plate and the classic antibiotic was diluted across the rows of the plate. Inhibition was determined by visual observation and OD600 (see Berenbaum et al., J Antimicrob Chemother 12:555-563, 1983; and Berenbaum, J Infect Dis 137:122-130, 1978). […] Synergy was quantified using the method of isoboles as described (see Tallarida, Genes Cancer. 2:1003-8, 2011): (Effective concentration of antibiotic/MIC of antibiotic)+(Effective concentration of PPMO/MIC of PPMO). Calculated values less than 1 indicated synergy.
The MIC of the antibiotics colistin, meropenem, and tobramycin was measured using the microdilution method of the Clinical Laboratory Standards Institute in a 96-well microtiter plate format. Multiple, identical dilution series of each antibiotic were included on each microtiter plate. In each dilution series of antibiotic, a fixed amount of PPMO was added. Each dilution series of antibiotic included a different concentration of PPMO.

[3] = system: A. baumannii AYE; assay: MIC of tobramycin with adeA PPMO in nutrient rich and minimal media; format: cell-based; settings: for MIC of tobramycin with adeA PPMO: 8 μM adeA PPMO
[4] = system: Acinetobacter spp. (~34 strains); assay: PPMO MIC (IC75) in panel of Acinetobacter strains, rich and minimal media; settings: nutrient rich MHII media
Protocol: Bacteria. Bacterial strains were obtained through the clinical microbiology lab at UT Southwestern unless otherwise noted. Strains also included those purchased through ATCC, the E. coli Genetic Stock Center (Yale University), or received from collaborators. They included both genome-sequenced isolates as well as clinical isolates with varying levels of antibiotic resistance. Single colonies were grown aerobically to stationary phase (1-2 mLs at 37° C., 250 rpm) in Mueller Hinton cation-adjusted (MH II) broth (Becton-Dickinson Difco BBL, Franklin Lakes, N.J., USA). The OD600 was taken and a working stock of 5×10^5 was generated based on the individual strain's colony forming units (CFU)/mL/OD. Working stocks were diluted in 150 mM NaCl and plated on tryptic-soy agar w/5% sheep blood plate (Remel, Lenexa, Kans.) to verify the starting concentration. For minimal nutrient conditions, E. coli was incubated in MOPS minimal medium (Neidhart et al., J Bacteriol 119:736-747, 1974), and Acinetobacter was performed in AB minimal media (Agrobacterium minimal media) with 10 mM citrate (Clark, J Mol Biol 23:99-112, 1967).
Minimal Inhibitory Concentration Assays. […] Optical density (OD) of cultures was read in a microplate spectrophotometer at 595-600 nm. After 18-20 hours of aerobic growth (200-250 rpm) at 37° C., 100 μl cultures with an OD of <0.06 were scored as no growth. […]

[5] = system: A. baumannii AYE; assay: Transmission electron microscopy of PPMO-treated bacteria; format: cell-based; settings: 40 μM

Q: `O=C(N[C@H](CO)[C@H](O)c1ccc([N+](=O)[O-])cc1)C(Cl)Cl` [chloramphenicol, reference compound] was tested. Which MIC ([1]; Escherichia coli, SMS35, chloramphenicol alone) did it give?
A: Its MIC is greater than 512 µg/mL.

Q: For `C[C@@H](O)[C@H]1C(=O)N2C(C(=O)O)=C(S[C@@H]3CN[C@H](C(=O)N(C)C)C3)[C@H](C)[C@H]12` [meropenem, reference compound], which MIC ([2]; read-out: MIC of meropenem) is on record?
A: The MIC was 2 µg/mL.

Q: Which results are given for `NC[C@H]1O[C@H](O[C@H]2[C@H](O)[C@@H](O[C@H]3O[C@H](CO)[C@@H](O)[C@H](N)[C@H]3O)[C@H](N)C[C@@H]2N)[C@H](N)C[C@@H]1O` [tobramycin, reference compound]?
A: MIC of tobramycin alone ([3]; AB Minimal Media): 64 µg/mL; MIC ([3]; Acinetobacter baumannii, MHII, read-out: MIC of tobramycin alone): 64 µg/mL; MIC ([2]; read-out: MIC of tobramycin): 64 µg/mL

Q: “PPMO#6: acpP PPMO ATATCGCTCAC; 5' (RXR)4XB, 3' acetyl (all phosphorodiamidate morpholino (PMO), 5' {(RXR)4XB}, 3' {Acetyl}; further chemistry not given here)” was tested. Which “IC75 MIC” value [4] did it give?
A: The value was 2000 nM.

Q: How did the “cell morphology by TEM” value ([5]; 6 hours of incubation, MHII media) turn out when “PPMO#7: acpP PPMO ATATCGCTCAC; 5' TEG, 3' (RXR)4XB (all phosphorodiamidate morpholino (PMO), 5' {TEG}, 3' {(RXR)4XB}; further chemistry not given here)” was run?
A: Its value is “cell wall disruption”.

Q: What about the “earliest time at which cell wall disruption was seen” value ([5]; data not shown) of the same molecule?
A: Its value is 3 h.

Q: And the “IC75 MIC” value [4]?
A: The value was 4000 nM.

Q: What about the “MIC of colistin in the presence of PPMO” value ([2]; 2 μM of PPMO) of the same molecule?
A: Its value is 0.25 µg/mL.

Q: What about the “MIC of tobramycin in the presence of PPMO” value ([2]; 4 μM PPMO) of the same molecule?
A: The value was 2 µg/mL.

Q: And the “synergy (method of isoboles; values less than 1 indicate synergy), colistin + PPMO” value ([2]; colistin)?
A: Its value is 0.75.

Q: And the “synergy (method of isoboles), meropenem + PPMO” value ([2]; meropenem)?
A: The value was 0.75.

Q: What about the “synergy (method of isoboles), tobramycin + PPMO” value ([2]; tobramycin) of the same molecule?
A: Its value is 0.625.

Q: “PPMO#65: adeA PPMO ATACTGTCCAA; 5' TEG, 3' (RXR)4XB (listed as DNA, chemistry not fully specified)” was tested. Which “MIC of tobramycin with adeA PPMO” value ([3]; MHII) did it give?
A: The value was 4 µg/mL.

Q: And the “MIC of tobramycin with adeA PPMO” value ([3]; minimal media)?
A: The value was 1 µg/mL.

Q: Which “effect of increasing concentrations of blaT PPMO on MIC of ampicillin” value ([1]; FIG. 15A) does the source give for “PPMO#66: blaT PPMO CTCTTCCTTTT; 5' TEG, 3' (RXR)4XB (listed as DNA, chemistry not fully specified)” here?
A: Its value is “progressively decreased”.

Q: Which “effect of increasing concentrations of cmlA PPMO on MIC of chloramphenicol” value ([1]; FIG. 15B) does the source give for “PPMO#67: cml PPMO TCCTTCTGATT; 5' TEG, 3' (RXR)4XB (listed as DNA, chemistry not fully specified)” here?
A: The value was “progressively decreases in a dose-dependent fashion”.

Q: How did the MIC of colistin ([2]; without PPMO) turn out when colistin [reference compound] was run?
A: The MIC of colistin was 1 µg/mL.
